Laboratory results reported in PubChem BioAssay (NCI).
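How tested: cells in 96-well plates exposed to compound for 48 hours at five concentrations. Abbreviation: GI50, concentration required for 50% inhibition of growth. At the TGI there is no net growth.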

Key:
Test in all cases: growth of human tumour cells (NCI), 48 h
KM12 colon = test system: KM12 colon
HOP-62 NSCLC = test system: HOP-62 NSCLC
UACC-257 melanoma = test system: UACC-257 melanoma
HOP-92 NSCLC = test system: HOP-92 NSCLC
RXF 393 renal = test system: RXF 393 renal
SF-295 CNS = test system: SF-295 CNS
HT29 colon = test system: HT29 colon
SNB-19 CNS = test system: SNB-19 CNS
OVCAR-5 ovarian = test system: OVCAR-5 ovarian

`Cn1c(=O)c2[nH]c(Nc3cccc(Cl)c3)nc2n(C)c1=O` gave a TGI (KM12 colon) greater than 10 µM, a TGI (HOP-62 NSCLC) greater than 10 µM and a TGI (UACC-257 melanoma) greater than 10 µM. For the same compound, the TGI (HOP-92 NSCLC) was 6.56 µM, the TGI (RXF 393 renal) was 8.76 µM and the TGI (SF-295 CNS) was greater than 10 µM. For the same compound, the TGI (HT29 colon) was greater than 10 µM.

In the case of `Cc1nn(C(=O)c2ccccc2O)c2c1C(c1ccc([N+](=O)[O-])cc1)SC(N)=N2` (configuration not stated), the TGI (KM12 colon) is reported as greater than 10 µM, the TGI (SNB-19 CNS) is reported as greater than 10 µM and the TGI (HOP-62 NSCLC) is reported as greater than 10 µM. It also gave a TGI (UACC-257 melanoma) greater than 10 µM, a TGI (HOP-92 NSCLC) greater than 10 µM and a TGI (RXF 393 renal) greater than 10 µM. For the same compound, the TGI (OVCAR-5 ovarian) was greater than 10 µM, the TGI (SF-295 CNS) was greater than 10 µM and the TGI (HT29 colon) was greater than 10 µM.

`COc1ccc2c(c1)CCC(CN1CCN(CCOC(c3ccccc3)c3ccccc3)CC1)C2O` (configuration not stated) gave a TGI (KM12 colon) of 44.6 µM, a TGI (SNB-19 CNS) of 33.6 µM and a TGI (HOP-62 NSCLC) of 38.3 µM. For the same compound, the TGI (UACC-257 melanoma) was 27.2 µM, the TGI (HOP-92 NSCLC) was 28.5 µM and the TGI (RXF 393 renal) was 29.3 µM. For the same compound, the TGI (OVCAR-5 ovarian) was 30.5 µM, the TGI (SF-295 CNS) was 36 µM and the TGI (HT29 colon) was 18.2 µM.

Work on `CN1C2CCC1C(CO)C(=O)C2` (configuration not stated) yielded a TGI (KM12 colon) greater than 100 µM, a TGI (HOP-62 NSCLC) greater than 100 µM and a TGI (UACC-257 melanoma) greater than 100 µM. The TGI (HOP-92 NSCLC) was greater than 100 µM, the TGI (RXF 393 renal) was greater than 100 µM and the TGI (SF-295 CNS) was greater than 100 µM.

`Cc1ccc2nc(Nc3ccccc3C)c(Nc3ccccc3C)nc2c1` showed a TGI (KM12 colon) of 45.8 µM, a TGI (SNB-19 CNS) greater than 100 µM and a TGI (HOP-62 NSCLC) greater than 100 µM. It also gave a TGI (UACC-257 melanoma) of 72.3 µM, a TGI (HOP-92 NSCLC) of 54.1 µM and a TGI (RXF 393 renal) greater than 58.1 µM. The TGI (OVCAR-5 ovarian) was 47.5 µM, the TGI (SF-295 CNS) was 52.3 µM and the TGI (HT29 colon) was greater than 81.1 µM.

`N#Cc1ccnc(C(=O)N2CCCC2C(=O)O)c1` (configuration not stated) gave a TGI (KM12 colon) greater than 100 µM, a TGI (SNB-19 CNS) greater than 100 µM and a TGI (HOP-62 NSCLC) greater than 100 µM. For the same compound, the TGI (UACC-257 melanoma) was greater than 100 µM, the TGI (HOP-92 NSCLC) was greater than 100 µM and the TGI (RXF 393 renal) was greater than 100 µM. It also gave a TGI (OVCAR-5 ovarian) greater than 100 µM, a TGI (SF-295 CNS) greater than 100 µM and a TGI (HT29 colon) greater than 100 µM.

In the case of `Fc1cccc(F)c1C1SCc2nc3cc(Cl)ccc3n21` (configuration not stated), the TGI (KM12 colon) is reported as 72.9 µM, the TGI (SNB-19 CNS) is reported as greater than 100 µM and the TGI (HOP-62 NSCLC) is reported as greater than 100 µM. The TGI (UACC-257 melanoma) was greater than 60.6 µM, the TGI (HOP-92 NSCLC) was greater than 100 µM and the TGI (RXF 393 renal) was greater than 100 µM. For the same compound, the TGI (OVCAR-5 ovarian) was greater than 100 µM, the TGI (SF-295 CNS) was greater than 70.2 µM and the TGI (HT29 colon) was 31.3 µM.

Compound `CSc1ncnc2c1cnn2Cc1cn(COCC(O)CO)nn1` (configuration not stated) has a TGI (KM12 colon) greater than 100 µM, a TGI (SNB-19 CNS) greater than 100 µM and a TGI (HOP-62 NSCLC) greater than 100 µM. For the same compound, the TGI (UACC-257 melanoma) was greater than 100 µM, the TGI (HOP-92 NSCLC) was greater than 100 µM and the TGI (OVCAR-5 ovarian) was greater than 100 µM. The TGI (SF-295 CNS) was greater than 100 µM and the TGI (HT29 colon) was greater than 100 µM.

`O=C(O[C@@H](/C=C/c1ccccc1)P1(=O)N(Cc2ccccc2)[C@@H]2CCCC[C@H]2N1Cc1ccccc1)c1ccccc1` was tested, and the TGI (KM12 colon) was 15.5 µM, the TGI (SNB-19 CNS) was greater than 100 µM and the TGI (HOP-62 NSCLC) was greater than 100 µM. The TGI (UACC-257 melanoma) was greater than 100 µM, the TGI (HOP-92 NSCLC) was 5.52 µM and the TGI (OVCAR-5 ovarian) was greater than 100 µM. It also gave a TGI (SF-295 CNS) greater than 100 µM and a TGI (HT29 colon) greater than 100 µM.

`O=C1c2cc3c(cc2-c2c1c1cc(F)c(F)cc1c(=O)n2C[C@H](O)CO)OCO3` was tested, and the GI50 (KM12 colon) was 0.123 µM, the TGI (KM12 colon) was greater than 100 µM and the GI50 (HOP-62 NSCLC) was 0.0225 µM. For the same compound, the TGI (HOP-62 NSCLC) was 0.186 µM, the GI50 (UACC-257 melanoma) was 0.143 µM and the TGI (UACC-257 melanoma) was 0.593 µM. The GI50 (RXF 393 renal) was 0.121 µM, the TGI (RXF 393 renal) was 0.335 µM and the GI50 (OVCAR-5 ovarian) was 0.207 µM. For the same compound, the TGI (OVCAR-5 ovarian) was 4.55 µM.

Compound `O=C(O)C12C3C4(C(=O)O)C1C1(C(=O)O)C2C3(C(=O)O)C41` (configuration not stated) has a TGI (KM12 colon) greater than 100 µM, a TGI (SNB-19 CNS) greater than 100 µM and a TGI (HOP-62 NSCLC) greater than 100 µM. For the same compound, the TGI (UACC-257 melanoma) was greater than 100 µM, the TGI (HOP-92 NSCLC) was greater than 100 µM and the TGI (OVCAR-5 ovarian) was greater than 100 µM. The TGI (SF-295 CNS) was greater than 100 µM and the TGI (HT29 colon) was greater than 100 µM.
